Among the data in patent US20230011571A1, “SMALL MOLECULE FURIN INHIBITORS FOR TREATING INFECTIOUS DISEASES” (BP Asset V, Inc., priority 2019, published 2023) are inhibition values, retold here.

By inhibition is commonly meant the relative decrease from the control value, in per cent.

SMILES strings stand for the structures.

What all share (type): cell-based
Assay [1] relates to Chikungunya virus (CHIKV). In words: microbe, parasite or virus in culture. The conditions noted are these: Chikungunya virus, Vero, 48 h, read-out: Percent viral inhibition CHKV.
For the next assay, the system named is dengue virus (DENV). In words: microbe, parasite or virus in culture. The conditions noted are these: Dengue virus, Vero, 120 h, read-out: Percent viral inhibition DENY.
A further assay relates to Marburg virus (MARV). Nature of the assay: organism not typed. The conditions noted are these: Vero, 72 h, read-out: Percent viral inhibition MARV.

As for `CC(=O)NCC1CCN(Cc2cc(Oc3cnc(N4CCN(CCC(=O)O)CC4)c(F)c3)nc(-c3cc(Cl)cc(Cl)c3)c2)CC1` [Example 266], the inhibition at 1 µM is 22.6% in assay [1], 48.7% in the assay on dengue virus (DENV) and 56.3% in the assay on Marburg virus (MARV).
The matching figures for `O=C(O)C1[C@H]2CCN(Cc3cc(Oc4cnc(N5CCN6CCC5C6)nc4)nc(-c4cc(Cl)cc(Cl)c4)c3)CC[C@@H]12` (stereo partly drawn) [Example 337, (1R,7S,8r)-4-((2-((2-(1,4-diazabicyclo[3.2.1]octan-4-yl)pyrimidin-5-yl)oxy)-6-(3,5-dichlorophenyl)pyridin-4-yl)methyl)-4-azabicyclo[5.1.0] octane-8-carboxylic acid]: 15.9%, 0% and 37.6%.
The matching figures for `CN1CCN(c2cnc(Oc3cc(CN4CCC(CCO)CC4)cc(-c4cc(Cl)cc(Cl)c4)n3)cn2)CC1` [Example 350, 2-(1-((2-(3,5-dichlorophenyl)-6-((5-(4-methylpiperazin-1-yl)pyrazin-2-yl)oxy)pyridin-4-yl)methyl)piperidin-4-yl)ethanol]: 0%, 22.8% and 29.9%.
On to `CC(=O)NCC1CCN(Cc2cc(Oc3cnc(N4CCN(CCC(N)=O)CC4)nc3)nc(-c3cc(Cl)cc(Cl)c3)c2)CC1` [Example 88, 3-(4-(5-((4-((4-(acetamidomethyl)piperidin-1-yl)methyl)-6-(3,5-dichlorophenyl)pyridin-2-yl)oxy)pyrimidin-2-yl)piperazin-1-yl)propanamide], for which the inhibition at 1 µM was found to be 10.9% in assay [1], 54.6% with dengue virus (DENV) and 58.6% in the assay on Marburg virus (MARV).
`CN1CCN(c2ccc(Oc3cc(CN4CCC5(CC4)CNC(=O)OC5)cc(-c4cc(Cl)cc(Cl)c4)n3)cn2)CC1` [Example 141, 9-((2-(3,5-dichlorophenyl)-6-((6-(4-methylpiperazin-1-yl)pyridin-3-yl)oxy)pyridin-4-yl)methyl)-2-oxa-4,9-diazaspiro[5.5]undecan-3-one]: the inhibition at 1 µM in assay [1] is 20.9%; with dengue virus (DENV) it was 27.7%; with Marburg virus (MARV) it was 66.6%.
For `CS(=O)(=O)CCCN1CCN(c2cnc(Oc3cc(CN4CCC(CC(=O)O)CC4)cc(-c4cc(Cl)cc(Cl)c4)n3)cn2)CC1` [Example 354, 2-(1-((2-(3,5-dichlorophenyl)-6-((5-(4-(3-(methylsulfonyl)propyl)piperazin-1-yl)pyrazin-2-yl)oxy)pyridin-4-yl)methyl)piperidin-4-yl)acetic acid], the results for the inhibition at 1 µM (in assay [1]; in the assay with dengue virus (DENV); in the assay on Marburg virus (MARV)) were 17.2%, 40.8% and 45.2%, respectively.
The matching figures for `CC(=O)NCC1CCN(Cc2cc(Oc3cnc(N4CCN(CCCS(N)(=O)=O)CC4)nc3)nc(-c3cc(Cl)cc(Cl)c3)c2)CC1` [Example 253, N-((1-((2-(3,5-dichlorophenyl)-6-((2-(4-(3-sulfamoylpropyl)piperazin-1-yl)pyrimidin-5-yl)oxy)pyridin-4-yl)methyl)piperidin-4-yl)methyl)acetamide]: 36.1%, 27.3% and 52.1%.
The matching figures for `O=C(O)CC1CCN(Cc2cc(Oc3ccc(N4C[C@@H]5C[C@H]4CN5)nc3)nc(-c3cc(Cl)cc(Cl)c3)c2)CC1` [Example 187, 2-(1-((2-((6-((1S,4S)-2,5-diazabicyclo[2.2.1]heptan-2-yl)pyridin-3-yl)oxy)-6-(3,5-dichlorophenyl)pyridin-4-yl)methyl)piperidin-4-yl) acetic acid]: 22.4%, 84% and 24.1%.
For the compound `NC(=O)OCCN1CCN(Cc2cc(Oc3cnc(N4CCN(CCC(=O)O)CC4)nc3)nc(-c3cc(Cl)cc(Cl)c3)c2)CC1` [Example 54, 3-(4-(5-((4-((4-(2-(carbamoyloxy)ethyl)piperazin-1-yl)methyl)-6-(3,5-dichlorophenyl)pyridin-2-yl)oxy)pyrimidin-2-yl)piperazin-1-yl)propanoic acid], the figures for the inhibition at 1 µM (in assay [1]; with dengue virus (DENV); in the assay with Marburg virus (MARV)) were 36.8%, 70.5% and 62.7%, respectively.
The matching figures for `C[C@]1(O)C[C@H](N2CCN(c3ncc(Oc4cc(CN5CCC(CC(=O)O)CC5)cc(-c5cc(Cl)cc(Cl)c5)n4)cn3)CC2)C1` [Example 25, 2-(1-((2-(3,5-dichlorophenyl)-6-((2-(4-((1r,3r)-3-hydroxy-3-methylcyclobutyl)piperazin-1-yl)pyrimidin-5-yl)oxy)pyridin-4-yl)methyl)piperidin-4-yl)acetic acid]: 26.3%, 13.7% and 65.5%.
With `CN1CCN(c2ncc(Oc3cc(CN4CCC(OC5(C(=O)O)CC5)CC4)cc(-c4cc(Cl)cc(Cl)c4)n3)cn2)CC1` [Example 143, 1-((1-((2-(3,5-dichlorophenyl)-6-((2-(4-methylpiperazin-1-yl)pyrimidin-5-yl)oxy)pyridin-4-yl)methyl)piperidin-4-yl)oxy)cyclopropanecarboxylic acid], the inhibition at 1 µM in assay [1] amounted to 34.4%; in the assay with dengue virus (DENV), 34.5%; in the assay with Marburg virus (MARV), 40.5%.
The matching figures for `CNC(=O)NCC1CCN(Cc2cc(Oc3cnc(N4CCN(CCC(=O)O)CC4)c(F)c3)nc(-c3cc(Cl)cc(Cl)c3)c2)CC1` [Example 270, 3-(4-(5-((6-(3,5-dichlorophenyl)-4-((4-((3-methylureido)methyl)piperidin-1-yl)methyl)pyridin-2-yl)oxy)-3-fluoropyridin-2-yl)piperazin-1-yl)propanoic acid]: 30.7%, 61.6% and 53.6%.
Turning to `O=C(O)COC1CCN(Cc2cc(Oc3cnc(N4CCNCC4)nc3)nc(-c3cc(Cl)cc(Cl)c3)c2)CC1` [Example 122, 2-((1-((2-(3,5-dichlorophenyl)-6-((2-(piperazin-1-yl)pyrimidin-5-yl)oxy)pyridin-4-yl)methyl)piperidin-4-yl)oxy)acetic acid], the inhibition at 1 µM in assay [1] came to 35.5%; with dengue virus (DENV) it was 33.7%; in the assay with Marburg virus (MARV), 23.6%.
The matching figures for `CC1(C)CN(c2ncc(Oc3cc(CN4CCC(CC(=O)O)CC4)cc(-c4cc(Cl)cc(Cl)c4)n3)cn2)CCN1` [Example 160, 2-(1-((2-(3,5-dichlorophenyl)-6-((2-(3,3-dimethylpiperazin-1-yl)pyrimidin-5-yl)oxy)pyridin-4-yl)methyl)piperidin-4-yl)acetic acid]: 21.7%, 49.5% and 35.1%.
The matching figures for `CC(=O)NCC1CCN(Cc2cc(Oc3ccc(N4CCN(CCC(=O)O)CC4)nn3)nc(-c3cc(Cl)cc(Cl)c3)c2)CC1` [Example 169, 3-(4-(6-((4-((4-(acetamidomethyl)piperidin-1-yl)methyl)-6-(3,5-dichlorophenyl)pyridin-2-yl)oxy)pyridazin-3-yl)piperazin-1-yl)propanoic acid]: 0%, 0% and 16.4%.
For the compound `CNC(=O)OCC1CCN(Cc2cc(Oc3cnc(N4CCN(C[C@@H](C)O)CC4)nc3)nc(-c3cc(Cl)cc(Cl)c3)c2)CC1` [Example 308, (R)-(1-((2-(3,5-dichlorophenyl)-6-((2-(4-(2-hydroxypropyl)piperazin-1-yl)pyrimidin-5-yl)oxy)pyridin-4-yl)methyl)piperidin-4-yl)methylmethylcarbamate], the inhibition at 1 µM in assay [1] turned out to be 0%; with dengue virus (DENV), 0%; with Marburg virus (MARV) it was 23.7%.
Take `CNC(=O)OCCN1CCN(c2ncc(Oc3cc(CN4CCC(CC(=O)O)CC4)cc(-c4cc(Cl)cc(Cl)c4)n3)cn2)CC1` [Example 241, 2-(1-((2-(3,5-dichlorophenyl)-6-((2-(4-(2-((methylcarbamoyl)oxy)ethyl)piperazin-1-yl)pyrimidin-5-yl)oxy)pyridin-4-yl)methyl)piperidin-4-yl)acetic acid]: the figures for the inhibition at 1 µM (in assay [1]; in the assay with dengue virus (DENV); with Marburg virus (MARV)) were 32.4%, 43.4% and 73.1%, respectively.
The matching figures for `CC(=O)CC1CCN(Cc2cc(Oc3cnc(N4CCN(C)CC4)nc3)nc(-c3cc(Cl)cc(Cl)c3)c2)CC1` [Example 155, 1-(1-((2-(3,5-dichlorophenyl)-6-((2-(4-methylpiperazin-1-yl)pyrimidin-5-yl)oxy)pyridin-4-yl)methyl)piperidin-4-yl)propan-2-one]: 14.5%, 8.98% and 42%.
The matching figures for `CN1CCN(c2ncc(Oc3nc(-c4cc(Cl)cc(Cl)c4)cc(CN4CCC(CC(=O)O)CC4)c3F)cn2)CC1` [Example 379, 2-(1-((6-(3,5-dichlorophenyl)-3-fluoro-2-((2-(4-methylpiperazin-1-yl)pyrimidin-5-yl)oxy)pyridin-4-yl)methyl)piperidin-4-yl)acetic acid]: 41.5%, 35.2% and 51.2%.
With `O=C(O)CC1CCN(Cc2cc(Oc3cnc(N4CCN5CCC4C5)cn3)nc(-c3cc(Cl)cc(Cl)c3)c2)CC1` (stereo not drawn) [Example 348, 2-(1-((2-((5-(1,4-diazabicyclo[3.2.1]octan-4-yl)pyrazin-2-yl)oxy)-6-(3,5-dichlorophenyl)pyridin-4-yl)methyl)piperidin-4-yl)acetic acid], the inhibition at 1 µM is 35.8% in assay [1], 55.8% in the assay on dengue virus (DENV) and 46.6% in the assay with Marburg virus (MARV).
With `O=C(O)CCC1CCN(Cc2cc(Oc3ccc(N4CCN(CCO)CC4)nc3)nc(-c3cc(Cl)cc(Cl)c3)c2)CC1` [Example 314, 3-(1-((2-(3,5-dichlorophenyl)-6-((6-(4-(2-hydroxyethyl)piperazin-1-yl)pyridin-3-yl)oxy)pyridin-4-yl)methyl)piperidin-4-yl)propanoic acid], the inhibition at 1 µM worked out at 32% in assay [1], 7.86% in the assay with dengue virus (DENV) and 52.1% in the assay with Marburg virus (MARV).
